Experimental data taken from BindingDB's records for patent US20240189287 (Bionanosim (Bns, 2024).

Molecular target: Cannabinoid receptor 1 (Mus musculus, UniProt P47746)
Assay: CB1 receptor binding assay
Text: Mouse brain membranes were used as the source material for CB1 receptors. […] Briefly.

Chain of Cannabinoid receptor 1 (P47746 whole entry): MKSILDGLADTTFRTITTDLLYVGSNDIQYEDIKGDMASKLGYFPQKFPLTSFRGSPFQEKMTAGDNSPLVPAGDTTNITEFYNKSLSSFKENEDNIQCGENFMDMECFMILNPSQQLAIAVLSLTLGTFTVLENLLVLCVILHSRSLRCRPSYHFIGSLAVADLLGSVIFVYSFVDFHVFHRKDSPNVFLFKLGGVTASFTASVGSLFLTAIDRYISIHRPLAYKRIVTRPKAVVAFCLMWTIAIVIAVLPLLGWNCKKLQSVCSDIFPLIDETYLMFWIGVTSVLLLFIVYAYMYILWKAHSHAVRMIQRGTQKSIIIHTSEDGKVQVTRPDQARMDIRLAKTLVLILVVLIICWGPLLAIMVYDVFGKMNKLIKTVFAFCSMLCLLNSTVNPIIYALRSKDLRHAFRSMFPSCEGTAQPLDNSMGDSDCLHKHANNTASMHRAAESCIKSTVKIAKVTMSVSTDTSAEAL

For `O=S(=O)(NC1CCCOc2c1nn(-c1ccccc1Cl)c2-c1ccc(Cl)cc1)c1ccc(Cl)cc1` (stereo unspecified) [US20240189287, Compound BNS808], the Ki was 0.6 nM.
